The values below come from patent US20250382305A1 (PTC THERAPEUTICS, INC., priority 2022, published 2025).

Some results are limits rather than exact numbers.

Test [1] relates to Total ATXN3 (tATXN3) protein. In words: Endogenous Total ATXN3 (tATXN3) Protein Assay (MSD immunoassay of cell lysates). The class given is cell-based. The conditions noted are these: average IC50, total ATXN3 protein in cell lysate after 48 h with compound (Table 1). In a few lines:
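Cells in DMEM/10% FBS were plated at 10,000 per well onto 7-point, 3.16-fold compound dilutions in duplicate for 48 h at 37° C, then lysed. Total ATXN3 in lysates was measured by MSD sandwich immunoassay: mouse anti-ATXN3 capture, rabbit anti-ATXN3 detection, SULFO-TAG anti-rabbit. Average IC50 was reported in star bins.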

In a further test the test system is ATXN3 pre-mRNA. Nature of the test: RT-qPCR Assay to Quantify Exon 4 Skipping in ATXN3 pre-mRNA in Cells. Type of test: cell-based. The note with it: percent exon 4 skipping in ATXN3 pre-mRNA, RT-qPCR of cell lysates; average IC50. The method in brief:
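Cells plated at 10,000/well onto a 7-point, 3.16-fold DMSO dilution series (duplicates), incubated 24 h at 37 °C, then lysed. Exon 4 skipping measured by one-step RT-qPCR (48 °C RT, 40 cycles); IC50 interpolated from dose-response fit of percent skipping.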
(Real-time PCR tracks product formation cycle by cycle.)

As to `CN[C@H]1CCCC[C@@H]1c1sc2c(NCc3cccs3)cc(Cl)nc2c1C#CCCCO` [Compound 264, 5-(5-chloro-2-((1S,2S)-2-(methylamino)cyclohexyl)-7-((thiophen-2-ylmethyl)amino)thieno[3,2-b]pyridin-3-yl)pent-4-yn-1-ol], the results for the IC50 (in test [1]; with ATXN3 pre-mRNA) were 0.03 to 0.3 µM and at most 0.03 µM, respectively.
Consider `C=Cc1c([C@H]2CC=CC[C@@H]2N)sc2c(NCc3cccs3)cc(Cl)nc12` [Compound 267, 2-((1S,6S)-6-aminocyclohex-3-en-1-yl)-5-chloro-N-(thiophen-2-ylmethyl)-3-vinylthieno[3,2-b]pyridin-7-amine], for which the IC50 (in test [1]; in the test on ATXN3 pre-mRNA) was 0.03 to 0.3 µM in each case.
In the case of `N[C@@H]1CC=CC[C@H]1c1sc2c(NCc3cccs3)nc(Cl)nc2c1Cl.N[C@H]1CC=CC[C@@H]1c1sc2c(NCc3cccs3)nc(Cl)nc2c1Cl` (mixture of isomers) [Compound 397, 6-((1R,6R)-6-aminocyclohex-3-en-1-yl)-2,7-dichloro-N-(thiophen-2-ylmethyl)thieno[3,2-d]pyrimidin-4-amine and 6-((1S,6S)-6-aminocyclohex-3-en-1-yl)-2,7-dichloro-N-(thiophen-2-ylmethyl)thieno[3,2-d]pyrimidin-4-amine], the IC50 (in test [1]; in the test on ATXN3 pre-mRNA) was 0.3 to 1 µM throughout.
In the case of `Cc1c([C@@H]2CCC[C@H](F)[C@H]2N)sc2c(NCc3cccs3)cc(Cl)nc12.Cc1c([C@H]2CCC[C@@H](F)[C@@H]2N)sc2c(NCc3cccs3)cc(Cl)nc12` (mixture of isomers) [Compound 342, 2-((1R,2S,3S)-2-amino-3-fluorocyclohexyl)-5-chloro-3-methyl-N-(thiophen-2-ylmethyl)thieno[3,2-b]pyridin-7-amine and 2-((1S,2R,3R)-2-amino-3-fluorocyclohexyl)-5-chloro-3-methyl-N-(thiophen-2-ylmethyl)thieno[3,2-b]pyridin-7-amine], the IC50 (in test [1]; with ATXN3 pre-mRNA) was 0.03 to 0.3 µM throughout.
As for `CCOC(=O)C1=CC[C@@H](c2sc3c(NCc4cccs4)cc(Cl)nc3c2C)[C@@H](N)C1` [Compound 445, ethyl (4R,5S)-5-amino-4-(5-chloro-3-methyl-7-((thiophen-2-ylmethyl)amino)thieno[3,2-b]pyridin-2-yl)cyclohex-1-ene-1-carboxylate], the IC50 (in test [1]; in the test with ATXN3 pre-mRNA) was 0.3 to 1 µM throughout.
For the molecule “2-((1R,2R)-2-amino-5,5-dimethylcyclohexyl)-3-bromo-5-chloro-N-(thiophen-2-ylmethyl)thieno[3,2-b]pyridin-7-amine and 2-((1S,2S)-2-amino-5,5-dimethylcyclohexyl)-3-bromo-5-chloro-N-(thiophen-2-ylmethyl)thieno[3,2-b]pyridin-7-amine [Compound 149]”, the IC50 (in test [1]; in the test on ATXN3 pre-mRNA) was 0.03 to 0.3 µM in each case.
Take `N[C@@H]1CCC[C@H]1c1sc2c(NCc3ccco3)cc(Cl)nc2c1Br` [Compound 155, 2-((1R,2R)-2-aminocyclopentyl)-3-bromo-5-chloro-N-(furan-2-ylmethyl)thieno[3,2-b]pyridin-7-amine]: the IC50 was over 1 µM in test [1] and 0.3 to 1 µM in the test on ATXN3 pre-mRNA.
With `N[C@H]1CC=CC[C@@H]1c1sc2c(NCc3ccco3)cc(Cl)nc2c1Cl` [Compound 169, 2-((1S,6S)-6-aminocyclohex-3-en-1-yl)-3,5-dichloro-N-(furan-2-ylmethyl)thieno[3,2-b]pyridin-7-amine], the IC50 (in test [1]; in the test on ATXN3 pre-mRNA) was at most 0.03 µM in each case.
For `[2H]C1=C([2H])C([2H])([2H])[C@H](c2sc3c(NCc4ccco4)cc(Cl)nc3c2C)[C@@H](N)C1([2H])[2H]` [Compound 212, 2-((1S,6S)-6-aminocyclohex-3-en-1-yl-2,2,3,4,5,5-d6)-5-chloro-N-(furan-2-ylmethyl)-3-methylthieno[3,2-b]pyridin-7-amine], the IC50 (in test [1]; in the test with ATXN3 pre-mRNA) was at most 0.03 µM each time.
In the case of `N[C@@H]1CCC[C@H]1c1sc2c(NCc3cccs3)cc(Cl)nc2c1Cl` [Compound 2, 2-((1R,2R)-2-aminocyclopentyl)-3,5-dichloro-N-(thiophen-2-ylmethyl)thieno[3,2-b]pyridin-7-amine], the concentration for half-maximal inhibition (IC50) (in test [1]; with ATXN3 pre-mRNA) was over 1 µM throughout.
As to “2-((1R,6R)-6-aminocyclohex-3-en-1-yl-2,2,3,4,5,5-d6)-5-chloro-N-(furan-2-ylmethyl)-3-methylthieno[3,2-b]pyridin-7-amine and 2-((1S,6S)-6-aminocyclohex-3-en-1-yl-2,2,3,4,5,5-d6)-5-chloro-N-(furan-2-ylmethyl)-3-methylthieno[3,2-b]pyridin-7-amine [Compound 171]”, the IC50 (in test [1]; with ATXN3 pre-mRNA) was at most 0.03 µM in each case.
For `N[C@@H]1CCCO[C@H]1c1sc2c(NCc3ccccc3)nc(Cl)nc2c1Br` [Compound 70, 6-((2R,3R)-3-aminotetrahydro-2H-pyran-2-yl)-N-benzyl-7-bromo-2-chlorothieno[3,2-d]pyrimidin-4-amine], the IC50 (in test [1]; with ATXN3 pre-mRNA) was over 1 µM in each case.
As to `N[C@H]1CC=CC[C@@H]1c1sc2c(NCc3cccs3)nc(Cl)nc2c1I` [Compound 182, 6-((1S,6S)-6-aminocyclohex-3-en-1-yl)-2-chloro-7-iodo-N-(thiophen-2-ylmethyl)thieno[3,2-d]pyrimidin-4-amine], the IC50 (in test [1]; with ATXN3 pre-mRNA) was at most 0.03 µM each time.
Take `N[C@H]1CCCC[C@]1(F)c1sc2c(NCc3ccco3)cc(Cl)nc2c1Cl` [Compound 38, 2-((1R,2S)-2-amino-1-fluorocyclohexyl)-3,5-dichloro-N-(furan-2-ylmethyl)thieno[3,2-b]pyridin-7-amine]: the IC50 (in test [1]; in the test on ATXN3 pre-mRNA) was 0.03 to 0.3 µM each time.
Consider `N[C@@H]1CCCO[C@H]1c1sc2c(NCc3cccs3)cc(Cl)nc2c1C#CCCO.N[C@H]1CCCO[C@@H]1c1sc2c(NCc3cccs3)cc(Cl)nc2c1C#CCCO` (mixture of isomers) [Compound 213, 4-(2-((2R,3R)-3-aminotetrahydro-2H-pyran-2-yl)-5-chloro-7-((thiophen-2-ylmethyl)amino)thieno[3,2-b]pyridin-3-yl)but-3-yn-1-ol and 4-(2-((2S,3S)-3-aminotetrahydro-2H-pyran-2-yl)-5-chloro-7-((thiophen-2-ylmethyl)amino)thieno[3,2-b]pyridin-3-yl)but-3-yn-1-ol], for which the IC50 (in test [1]; in the test on ATXN3 pre-mRNA) was at most 0.03 µM each time.
On to `Cc1c([C@H]2CCCCCC[C@H]2N)sc2c(NCc3cccs3)cc(Cl)nc12` [Compound 93, 2-((1S,2R)-2-aminocyclooctyl)-5-chloro-3-methyl-N-(thiophen-2-ylmethyl)thieno[3,2-b]pyridin-7-amine], for which the IC50 (in test [1]; with ATXN3 pre-mRNA) was over 1 µM in each case.
As for `N[C@@H]1CCCC[C@H]1c1cc2nc(Cl)cc(NCc3cccs3)c2s1` [Compound 23, 2-((1R,2R)-2-aminocyclohexyl)-5-chloro-N-(thiophen-2-ylmethyl)thieno[3,2-b]pyridin-7-amine], the IC50 (in test [1]; in the test on ATXN3 pre-mRNA) was over 1 µM throughout.
For the molecule “6-((3R,4S)-3-aminotetrahydro-2H-pyran-4-yl)-7-bromo-2-chloro-N-(furan-2-ylmethyl)thieno[3,2-d]pyrimidin-4-amine and 6-((3S,4R)-3-aminotetrahydro-2H-pyran-4-yl)-7-bromo-2-chloro-N-(furan-2-ylmethyl)thieno[3,2-d]pyrimidin-4-amine [Compound 339]”, the IC50 (in test [1]; in the test with ATXN3 pre-mRNA) was 0.03 to 0.3 µM each time.
Regarding `N#Cc1cc(NCc2ccco2)c2sc([C@@H]3CC=CC[C@H]3N)c(Cl)c2n1` [Compound 443, 2-((1R,6R)-6-aminocyclohex-3-en-1-yl)-3-chloro-7-((furan-2-ylmethyl)amino)thieno[3,2-b]pyridine-5-carbonitrile], the IC50 (in test [1]; with ATXN3 pre-mRNA) was at most 0.03 µM each time.
Consider `N[C@H]1CC=CC[C@@H]1c1c(I)c2nc(Cl)cc(NCc3ccccc3)c2n1C(F)F` [Compound 352, 2-((1S,6S)-6-aminocyclohex-3-en-1-yl)-N-benzyl-5-chloro-1-(difluoromethyl)-3-iodo-1H-pyrrolo[3,2-b]pyridin-7-amine], for which the IC50 (in test [1]; in the test on ATXN3 pre-mRNA) was 0.03 to 0.3 µM each time.
For `N[C@@H]1CC=CC[C@H]1c1sc2c(NCc3ccncc3)nc(Cl)nc2c1Cl` [Compound 440, 6-((1R,6R)-6-aminocyclohex-3-en-1-yl)-2,7-dichloro-N-(pyridin-4-ylmethyl)thieno[3,2-d]pyrimidin-4-amine], the figures for the IC50 (in test [1]; in the test on ATXN3 pre-mRNA) were over 1 µM and 0.3 to 1 µM, respectively.
Take `N[C@@H]1CC=CC[C@H]1c1sc2c(NCc3ccccc3)nc(Cl)nc2c1I` [Compound 414, 6-((1R,6R)-6-aminocyclohex-3-en-1-yl)-N-benzyl-2-chloro-7-iodothieno[3,2-d]pyrimidin-4-amine]: the IC50 in test [1] was in the range of 0.3 to 1 µM; in the test on ATXN3 pre-mRNA, 0.03 to 0.3 µM.
As for `N[C@@H]1CC=CC[C@@H]1c1sc2c(NCc3cccs3)cc(Cl)nc2c1Br.N[C@H]1CC=CC[C@H]1c1sc2c(NCc3cccs3)cc(Cl)nc2c1Br` (racemic) [Compound 144, 2-((1S,6RS)-6-aminocyclohex-3-en-1-yl)-3-bromo-5-chloro-N-(thiophen-2-ylmethyl)thieno[3,2-b]pyridin-7-amine and 2-((1R,6SR)-6-aminocyclohex-3-en-1-yl)-3-bromo-5-chloro-N-(thiophen-2-ylmethyl)thieno[3,2-b]pyridin-7-amine], the IC50 (in test [1]; with ATXN3 pre-mRNA) was at most 0.03 µM each time.
On to `CC1=C(C)C[C@@H](c2sc3c(NCc4ccco4)cc(Cl)nc3c2Cl)[C@H](N)C1` [Compound 444, 2-((1R,6R)-6-amino-3,4-dimethylcyclohex-3-en-1-yl)-3,5-dichloro-N-(furan-2-ylmethyl)thieno[3,2-b]pyridin-7-amine], for which the IC50 in test [1] was over 1 µM; in the test with ATXN3 pre-mRNA, 0.3 to 1 µM.

As a reminder, the IC50 is the point on the concentration scale where inhibition reaches its midpoint.
